Experiments:
HL-60(TB) = experiment: NCI-60 screening (SRB); format: cell-based, human
CAKI-1 = experiment: NCI-60 screening (SRB); format: cell-based, human; settings: CAKI-1, five-dose
UACC-257 = experiment: NCI-60 screening (SRB); format: cell-based, human; settings: five-dose
HS 578T = experiment: NCI-60 screening (SRB); format: cell-based, human; settings: five-dose
LOX IMVI = experiment: NCI-60 screening (SRB); format: cell-based, human; settings: LOX IMVI, five-dose
SW-620 = experiment: NCI-60 screening (SRB); format: cell-based, human; settings: five-dose
MALME-3M = experiment: NCI-60 screening (SRB); format: cell-based, human; settings: MALME-3M, five-dose
HT29 = experiment: NCI-60 screening (SRB); format: cell-based, human
ACHN = experiment: NCI-60 screening (SRB); format: cell-based, human; settings: five-dose
SK-MEL-2 = experiment: NCI-60 screening (SRB); format: cell-based, human; settings: five-dose
MDA-MB-468 = experiment: NCI-60 screening (SRB); format: cell-based, human; settings: five-dose
A498 = experiment: NCI-60 screening (SRB); format: cell-based, human; settings: A498, five-dose
Colon Cancer = experiment: NCI-60 screening (SRB), subpanel; format: cell-based
Excerpt: (§1) The experimental data allow the assessment of the cytostatic effect, indicated by growth inhibition values ranging between 0 and 100, as well as of the cytotoxic effect, indicated by negative values.
(§2) The mean GI50 (molar concentration of the compound that inhibits 50% net cell growth), TGI (molar concentration of the compound leading to the total inhibition), and LC50 (molar concentration of the compound leading to 50% net cell death (presented in negative logarithm)) values across each cell line are shown in Table 2.
(§3) The selectivity index (SI), calculated as the ratio between the full panel MG_MID60 (μM) of compounds 4, 6, and 9 by their respective subpanels MG_MID of the cell line (μM), was introduced as a quantification tool for the selectivity of each compound in terms of anticancer effect (Table 3).
(§4) Primary anticancer assays were performed according to the NCI protocol, as described elsewhere (see e.g., http://dtp.nci.nih.gov accessed on 1 November 2018). The compounds were added at a single concentration, and the cell cultures were incubated for 48 h. The end point determinations were made with a protein-binding dye, sulforhodamine B (SRB). […] The percentage of growth was evaluated spectrophotometrically versus controls not treated with test agents after 48 h exposure and using SRB protein assay to estimate cell viability or growth. Three antitumor activity dose-response parameters were calculated for each cell line. Furthermore, mean graph midpoints (MG_MID) were calculated for each of the parameters, giving an average activity parameter over all cell lines for the tested compound. For the MG_MID calculation, insensitive cell lines were included with the highest concentration tested.

Prostate cancer = experiment: NCI-60 screening (SRB), subpanel; format: cell-based
Excerpt: as §1, §2, §3, §4

NSC lung cancer = experiment: NCI-60 screening (SRB), subpanel; format: cell-based
Excerpt: as §1, §2, §3, §4

Leukemia = experiment: NCI-60 screening (SRB), subpanel; format: cell-based
Excerpt: as §1, §2, §3, §4

Melanoma = experiment: NCI-60 screening (SRB), subpanel; format: cell-based
Excerpt: as §1, §2, §3, §4

Renal Cancer = experiment: NCI-60 screening (SRB), subpanel; format: cell-based
Excerpt: as §1, §2, §3, §4

Ovarian cancer = experiment: NCI-60 screening (SRB), subpanel; format: cell-based
Excerpt: as §1, §2, §3, §4

Breast cancer = experiment: NCI-60 screening (SRB), subpanel; format: cell-based
Excerpt: as §1, §2, §3, §4

U251 = experiment: NCI-60 screening (SRB); format: cell-based, human; settings: U251, five-dose
TK-10 = experiment: NCI-60 screening (SRB); format: cell-based, human; settings: five-dose
SK-MEL-5 = experiment: NCI-60 screening (SRB); format: cell-based, human; settings: SK-MEL-5, five-dose
SN12C = experiment: NCI-60 screening (SRB); format: cell-based, human; settings: five-dose
[1] = HL-60(TB) (Leukemia), 1 dose 10 µM
[2] = Homo sapiens, read-out: LC50 (the source's name)

CCN1CCN(C(=O)[C@]23CC[C@@H](C)[C@H](C)[C@H]2C2=CC[C@@H]4[C@@]5(C)C/C(=C/c6cccnc6)C(=O)C(C)(C)[C@@H]5CC[C@@]4(C)[C@]2(C)CC3)CC1 [Compound 9, N-(2-{3-Pyridinylidene}-3-oxoursan-12-en-28-oyl)-ethylpiperazine]
Growth % (HL-60(TB); [1]): −38.20% | cell death (HL-60(TB); [1]): 38.20% | TGI (HL-60(TB); HL-60(TB), five-dose): 8.97 µM | GI50 (HL-60(TB); Homo sapiens, HL-60(TB), five-dose): 2.78 µM | CC50 (HL-60(TB); Homo sapiens, HL-60(TB), five-dose, read-out: LC50 (the source's name)): > 100 µM | TGI (CAKI-1): 11.8 µM | GI50 (CAKI-1; Homo sapiens): 2.12 µM | CC50 (CAKI-1; [2]): 41.9 µM | GI50 (UACC-257; Homo sapiens): 2.21 µM | CC50 (UACC-257; [2]): > 100 µM | TGI (UACC-257): 5.95 µM | GI50 (HS 578T; Homo sapiens): 1.91 µM | CC50 (HS 578T; [2]): > 100 µM | TGI (HS 578T): 4.77 µM | GI50 (LOX IMVI; Homo sapiens): 1.58 µM | CC50 (LOX IMVI; [2]): 5.91 µM | TGI (LOX IMVI): 3.06 µM | GI50 (SW-620; Homo sapiens): 1.9 µM | CC50 (SW-620; [2]): 9.05 µM | TGI (SW-620): 4.14 µM | GI50 (MALME-3M; Homo sapiens): 1.4 µM | CC50 (MALME-3M; [2]): 5.39 µM | TGI (MALME-3M): 2.75 µM | GI50 (HT29; Homo sapiens, HT-29, five-dose): 1.93 µM | CC50 (HT29; Homo sapiens, HT-29, five-dose, read-out: LC50 (the source's name)): > 100 µM | TGI (HT29; five-dose): 5.36 µM | GI50 (ACHN; Homo sapiens): 2.46 µM | LC50 (ACHN; Homo sapiens): 22.6 µM | TGI (ACHN): 6.45 µM | GI50 (SK-MEL-2; Homo sapiens): 2.12 µM | CC50 (SK-MEL-2; [2]): 65.5 µM | TGI (SK-MEL-2): 4.76 µM | GI50 (MDA-MB-468; Homo sapiens): 1.65 µM | CC50 (MDA-MB-468; [2]): 7.1 µM | TGI (MDA-MB-468): 3.43 µM | TGI (A498): 4.05 µM | GI50 (A498; Homo sapiens): 1.9 µM | CC50 (A498; [2]): 8.65 µM | TGI MG_MID (Colon Cancer; Colon Cancer subpanel, five-dose): 4.00 µM | SI (TGI) (Colon Cancer; Colon Cancer, MG_MID60/subpanel MG_MID): 1.32 | GI50 (Colon Cancer; Homo sapiens, Colon Cancer subpanel, five-dose, read-out: GI50 MG_MID): 1.81 µM | CC50 (Colon Cancer; Homo sapiens, Colon Cancer subpanel, five-dose, read-out: LC50 MG_MID): 33.7 µM | GI50 (Prostate cancer; Homo sapiens, Prostate cancer subpanel, five-dose, read-out: GI50 MG_MID): 1.79 µM | CC50 (Prostate cancer; Homo sapiens, Prostate cancer subpanel, five-dose, read-out: LC50 MG_MID): 9.23 µM | SI (TGI) (Prostate cancer; Prostate cancer, MG_MID60/subpanel MG_MID): 0.89 | GI50 (NSC lung cancer; Homo sapiens, NSC lung cancer subpanel, five-dose, read-out: GI50 MG_MID): 2.12 µM | CC50 (NSC lung cancer; Homo sapiens, NSC lung cancer subpanel, five-dose, read-out: LC50 MG_MID): 47.1 µM | TGI MG_MID (NSC lung cancer; NSC lung cancer subpanel, five-dose): 6.81 µM | SI (TGI) (NSC lung cancer; NSCL cancer, MG_MID60/subpanel MG_MID): 0.78 | CC50 (Leukemia; Homo sapiens, Leukemia subpanel, five-dose, read-out: LC50 MG_MID): > 100 µM | TGI MG_MID (Leukemia; Leukemia subpanel, five-dose): 7.09 µM | SI (TGI) (Leukemia; Leukemia, MG_MID60/subpanel MG_MID): 0.75 | GI50 (Melanoma; Homo sapiens, Melanoma subpanel, five-dose, read-out: GI50 MG_MID): 1.56 µM | CC50 (Melanoma; Homo sapiens, Melanoma subpanel, five-dose, read-out: LC50 MG_MID): 25.1 µM | TGI MG_MID (Melanoma; Melanoma subpanel, five-dose): 3.66 µM | SI (TGI) (Melanoma; Melanoma, MG_MID60/subpanel MG_MID): 1.45 | GI50 (Renal Cancer; Homo sapiens, Renal cancer subpanel, five-dose, read-out: GI50 MG_MID): 1.97 µM | LC50 (50% net cell kill) (Renal Cancer; Homo sapiens, Renal cancer subpanel, five-dose, read-out: LC50 MG_MID): 21.3 µM | SI (TGI) (Renal Cancer; Renal Cancer, MG_MID60/subpanel MG_MID): 0.95 | TGI MG_MID (Renal Cancer; Renal cancer subpanel, five-dose): 5.57 µM | GI50 (Ovarian cancer; Homo sapiens, Ovarian cancer subpanel, five-dose, read-out: GI50 MG_MID): 2.04 µM | CC50 (Ovarian cancer; Homo sapiens, Ovarian cancer subpanel, five-dose, read-out: LC50 MG_MID): 36.2 µM | SI (TGI) (Ovarian cancer; Ovarian Cancer, MG_MID60/subpanel MG_MID): 1.02 | TGI MG_MID (Ovarian cancer; Ovarian cancer subpanel, five-dose): 5.16 µM | TGI MG_MID (Breast cancer; Breast cancer subpanel, five-dose): 5.37 µM | SI (TGI) (Breast cancer; Breast cancer, MG_MID60/subpanel MG_MID): 0.98 | GI50 (Breast cancer; Homo sapiens, Breast cancer subpanel, five-dose, read-out: GI50 MG_MID): 1.91 µM | CC50 (Breast cancer; Homo sapiens, Breast cancer subpanel, five-dose, read-out: LC50 MG_MID): 36.9 µM | GI50 (U251; Homo sapiens, U-251): 1.82 µM | TGI (U251): 3.67 µM | GI50 (TK-10; Homo sapiens): 2.87 µM | CC50 (TK-10; [2]): 59.3 µM | TGI (TK-10): 9.40 µM | GI50 (SK-MEL-5; Homo sapiens): 1.75 µM | CC50 (SK-MEL-5; [2]): 5.63 µM | TGI (SK-MEL-5): 3.14 µM | GI50 (SN12C; Homo sapiens): 1.61 µM | CC50 (SN12C; [2]): 5.66 µM | TGI (SN12C): 3.01 µM

Source: PMC8536124 (International Journal of Molecular Sciences, 2021)
